Columns and labels:
Type in all cases: cell-based
[1] = test system: Streptococcus pyogenes C203; test: MIC, standard broth micro-dilution assay, SPY C203
Experimental: (§1) The antibacterial efficacy of the present compounds is illustrated by Table II. The minimal inhibitory concentrations (MICs) were determined using a standard broth micro-dilution assay.

[2] = test system: Staphylococcus aureus 447; test: MIC, standard broth micro-dilution assay, SA 447
Experimental: as §1

[3] = test system: Staphylococcus haemolyticus 105; test: MIC, standard broth micro-dilution assay, SH 105
Experimental: as §1

[4] = test system: Staphylococcus epidermidis 270; test: MIC, standard broth micro-dilution assay, SE 270
Experimental: as §1

[5] = test system: Staphylococcus haemolyticus 415; test: MIC, standard broth micro-dilution assay, SH 415
Experimental: as §1

[6] = test system: Staphylococcus aureus 489; test: MIC, standard broth micro-dilution assay, SA 489
Experimental: as §1

[7] = test system: Staphylococcus aureus 446; test: MIC, standard broth micro-dilution assay, SA 446
Experimental: as §1

[8] = test system: Enterococcus faecium and faecalis (SENSITIVE); conditions: geometric mean of 4-6 isolates
Experimental: as §1

[9] = test system: Enterococcus faecium and faecalis (RESISTANT); conditions: geometric mean of 4-6 isolates
Experimental: as §1

SMILES	Minimal Inhibitory Concentration (MIC) SPY C203 [1]	Minimal Inhibitory Concentration (MIC) SA 447 [2]	Minimal Inhibitory Concentration (MIC) SH 105 [3]	Minimal Inhibitory Concentration (MIC) SE 270 [4]	Minimal Inhibitory Concentration (MIC) SH 415 [5]	Minimal Inhibitory Concentration (MIC) SA 489 [6]	Minimal Inhibitory Concentration (MIC) SA 446 [7]	Minimal Inhibitory Concentration (MIC) SENSITIVE [8]	Minimal Inhibitory Concentration (MIC) RESISTANT [9]
CC(C)C[C@H](C(=O)N[C@H]1C(=O)N[C@@H](CC(N)=O)C(=O)N[C@H]2C(=O)N[C@H]3C(=O)N[C@H](C(=O)N[C@H](C(=O)O)c4cc(O)cc(O)c4-c4cc3ccc4O)[C@H](O[C@H]3C[C@](C)(N)[C@@H](O)[C@H](C)O3)c3ccc(c(Cl)c3)Oc3cc2cc(c3O[C@@H]2O[C@H](CO)[C@@H](O)[C@H](O)[C@H]2O[C@H]2C[C@](C)(NCc3ccc(Oc4ccccc4)cc3)[C@@H](O)[C@H](C)O2)Oc2ccc(cc2Cl)[C@H]1O)N(C)C(=S)Nc1ccccc1 [Example 3, N^LEU -(PHENYLTHIOCARBAMOYL)-N^DISACC -(p-PHENOXYBENZYL)-A82846B]	≤ .06	1	2	1	2	2	4	1.7	16
CC(C)CC(C(=O)NC1C(=O)NC(CC(N)=O)C(=O)NC2C(=O)NC3C(=O)NC(C(=O)NC(C(=O)O)c4cc(O)cc(O)c4-c4cc3ccc4O)C(OC3CC(C)(N)C(O)C(C)O3)c3ccc(c(Cl)c3)Oc3cc2cc(c3OC2OC(CO)C(O)C(O)C2OC2CC(C)(N)C(O)C(C)O2)Oc2ccc(cc2Cl)C1O)N(C)C(=S)Nc1ccc(Cl)cc1 (centres unmarked) [Example 8, N^LEU -((p-CHLOROPHENYL)-THIOCARBAMOYL)A82846B]		4	16	8	64	2	2	8	> 128
COc1ccc(NC(=S)N(C)C(CC(C)C)C(=O)NC2C(=O)NC(CC(N)=O)C(=O)NC3C(=O)NC4C(=O)NC(C(=O)NC(C(=O)O)c5cc(O)cc(O)c5-c5cc4ccc5O)C(OC4CC(C)(N)C(O)C(C)O4)c4ccc(c(Cl)c4)Oc4cc3cc(c4OC3OC(CO)C(O)C(O)C3OC3CC(C)(N)C(O)C(C)O3)Oc3ccc(cc3Cl)C2O)cc1 (centres unmarked) [Example 9, N^LEU -((p-METHOXYPHENYL)-THIOCARBAMOYL)A82846B]		8	32	16	32	4	8	21	> 128
CC(C)CC(C(=O)NC1C(=O)NC(CC(N)=O)C(=O)NC2C(=O)NC3C(=O)NC(C(=O)NC(C(=O)O)c4cc(O)cc(O)c4-c4cc3ccc4O)C(OC3CC(C)(N)C(O)C(C)O3)c3ccc(c(Cl)c3)Oc3cc2cc(c3OC2OC(CO)C(O)C(O)C2OC2CC(C)(NCc3ccc(Oc4ccccc4)cc3)C(O)C(C)O2)Oc2ccc(cc2Cl)C1O)N(C)C(=S)Nc1ccc(Cl)cc1 (centres unmarked) [Example 10, N^LEU -((p-CHLOROPHENYL)-THIOCARBAMOYL)-N^DISACC -(p-PHENOXYBENZYL)A82846B]		2	1	2	2	2	4	1.7	9.5
COc1ccc(NC(=S)N(C)C(CC(C)C)C(=O)NC2C(=O)NC(CC(N)=O)C(=O)NC3C(=O)NC4C(=O)NC(C(=O)NC(C(=O)O)c5cc(O)cc(O)c5-c5cc4ccc5O)C(OC4CC(C)(N)C(O)C(C)O4)c4ccc(c(Cl)c4)Oc4cc3cc(c4OC3OC(CO)C(O)C(O)C3OC3CC(C)(NCc4ccc(Oc5ccccc5)cc4)C(O)C(C)O3)Oc3ccc(cc3Cl)C2O)cc1 (centres unmarked) [Example 11, N^LEU -((p-METHOXYPHENYL)-THIOCARBAMOYL)-N^DISACC -(p-PHENOXYBENZYL)A82846B]		2	1	2	2	2	4	2.6	38
CCCCc1ccc(CNC2(C)CC(OC3C(Oc4c5cc6cc4Oc4ccc(cc4Cl)C(OC4CC(C)(N)C(O)C(C)O4)C4NC(=O)C(NC(=O)C6NC(=O)C(CC(N)=O)NC(=O)C(NC(=O)C(CC(C)C)N(C)C(=S)Nc6ccccc6)C(O)c6ccc(c(Cl)c6)O5)c5ccc(O)c(c5)-c5c(O)cc(O)cc5C(C(=O)O)NC4=O)OC(CO)C(O)C3O)OC(C)C2O)cc1 (centres unmarked) [Example 21, N^LEU -(PHENYLTHIOCARBAMOYL)-N^DISACC -(p-n-BUTYLBENZYL)-A82846B]								2.6	32
CC(C)CC(C(=O)NC1C(=O)NC(CC(N)=O)C(=O)NC2C(=O)NC3C(=O)NC(C(=O)NC(C(=O)O)c4cc(O)cc(O)c4-c4cc3ccc4O)C(OC3CC(C)(N)C(O)C(C)O3)c3ccc(c(Cl)c3)Oc3cc2cc(c3OC2OC(CO)C(O)C(O)C2OC2CC(C)(N)C(O)C(C)O2)Oc2ccc(cc2Cl)C1O)N(C)C(=O)Nc1ccccc1 (centres unmarked) [Example 23, N^LEU -(PHENYLCARBAMOYL)A82846B]		4	0.5	4	64	1	4	5.3	> 128
CC(C)CC(C(=O)NC1C(=O)NC(CC(N)=O)C(=O)NC2C(=O)NC3C(=O)NC(C(=O)NC(C(=O)O)c4cc(O)cc(O)c4-c4cc3ccc4O)C(OC3CC(C)(N)C(O)C(C)O3)c3ccc(c(Cl)c3)Oc3cc2cc(c3OC2OC(CO)C(O)C(O)C2OC2CC(C)(NCc3ccc(Oc4ccccc4)cc3)C(O)C(C)O2)Oc2ccc(cc2Cl)C1O)N(C)C(=O)Nc1ccccc1 (centres unmarked) [Example 24, N^LEU -(PHENYLCARBAMOYL)-N^DISACC -(p-PHENOXYBENZYL)A82846B]		1	0.25	1	1	1	2	0.87	16
